Measurements from patent US9423396B2, “Bodipy structure fluorescence probes for diverse biological applications” (National University of Singapore, priority 2011, dated 2016).

Assay: Spectroscopic measurements (absorption, emission, quantum yield, extinction coefficient)
Assay type: physicochemical
[1] = BDNCA library, difference emission minus absorption
[2] = BDNCA library, extinction coefficient; in M-1 cm-1 (unit assumed)
[3] = BDNCA library, fluorescence emission
[4] = absorption maximum, BDNCA library
[5] = difference of emission and absorption maxima
[6] = extinction coefficient, BDNCA library; in M-1 cm-1 (unit assumed)
[7] = fluorescence emission maximum, BDNCA library

| SMILES | Qunt. Yield (BDNCA library) | Abs (BDNCA library, absorption) [nm] | Flu-Abs [1] | ε [2] | Flu [3] | Abs [4] [nm] | Flu-Abs [5] | ε [6] | Flu [7] | Qunt. Yield (quantum yield, BDNCA library) |
| --- | --- | --- | --- | --- | --- | --- | --- | --- | --- | --- |
| COc1ccc(/C=C/C2=[N+]3C(=C(c4ccc(NC(=O)CCl)cc4)c4cccn4[B-]3(F)F)C(C)=C2)cc1Br [BDNCA-260] | 0.19 | 564 | 27 | 86,499 | 591 | – | – | – | – | – |
| COc1ccc(/C=C/c2cc(C)c3n2[B-](F)(F)[N+]2=CC=CC2=C3c2ccc(NC(=O)CCl)cc2)c(Br)c1O [BDNCA-261] | 0.01 | 567 | 29 | 49,703 | 596 | – | – | – | – | – |
| CC1=CC(/C=C/c2c(Br)ccc3c2OCO3)=[N+]2C1=C(c1ccc(NC(=O)CCl)cc1)c1cccn1[B-]2(F)F [BDNCA-262] | 0.07 | 561 | 21 | 68,924 | 582 | – | – | – | – | – |
| CCCCc1ccc(/C=C/C2=[N+]3C(=C(c4ccc(NC(=O)CCl)cc4)c4cccn4[B-]3(F)F)C(C)=C2)cc1 [BDNCA-263] | 0.17 | 559 | 23 | 124,394 | 582 | – | – | – | – | – |
| COc1cc(/C=C/C2=[N+]3C(=C(c4ccc(NC(=O)CCl)cc4)c4cccn4[B-]3(F)F)C(C)=C2)ccc1OCCBr [BDNCA-268] | 0.12 | 569 | 40 | 54,371 | 609 | – | – | – | – | – |
| COc1ccc(/C=C/C2=[N+]3C(=C(c4ccc(NC(=O)CCl)cc4)c4cccn4[B-]3(F)F)C(C)=C2)cc1Cl [BDNCA-274] | 0.15 | 563 | 27 | 71,670 | 590 | – | – | – | – | – |
| COc1cc(Cl)cc(/C=C/C2=[N+]3C(=C(c4ccc(NC(=O)CCl)cc4)c4cccn4[B-]3(F)F)C(C)=C2)c1O [BDNCA-275] | 0.01 | 563 | 22 | 60,686 | 585 | – | – | – | – | – |
| Cc1cc(/C=C/c2ccc(Oc3ccc(Cl)cc3)cc2)n2c1C(c1ccc(NC(=O)CCl)cc1)=C1C=CC=[N+]1[B-]2(F)F [BDNCA-277] | 0.15 | 561 | 24 | 65,080 | 585 | – | – | – | – | – |
| COc1cccc(/C=C/C2=[N+]3C(=C(c4ccc(NC(=O)CCl)cc4)c4cccn4[B-]3(F)F)C(C)=C2)c1Cl [BDNCA-281] | 0.14 | 556 | 20 | 79,908 | 576 | – | – | – | – | – |
| COc1cc(Cl)cc(/C=C/C2=[N+]3C(=C(c4ccc(NC(=O)CCl)cc4)c4cccn4[B-]3(F)F)C(C)=C2)c1OC [BDNCA-282] | 0.12 | 557 | 20 | 52,723 | 577 | – | – | – | – | – |
| CC1=CC(/C=C/c2cccc(O)c2Cl)=[N+]2C1=C(c1ccc(NC(=O)CCl)cc1)c1cccn1[B-]2(F)F [BDNCA-283] | 0.05 | 556 | 18 | 27,460 | 574 | – | – | – | – | – |
| CC1=CC(/C=C/c2ccc(-c3cccc(Cl)c3)o2)=[N+]2C1=C(c1ccc(NC(=O)CCl)cc1)c1cccn1[B-]2(F)F [BDNCA-284] | 0.04 | 595 | 42 | 31,579 | 637 | – | – | – | – | – |
| CC1=CC(/C=C/c2c(C)cccc2Cl)=[N+]2C1=C(c1ccc(NC(=O)CCl)cc1)c1cccn1[B-]2(F)F [BDNCA-285] | 0.12 | 544 | 27 | 44,211 | 571 | – | – | – | – | – |
| CC1=CC(/C=C/c2ccc(C)c(Cl)c2)=[N+]2C1=C(c1ccc(NC(=O)CCl)cc1)c1cccn1[B-]2(F)F [BDNCA-289] | 0.16 | 560 | 26 | 60,686 | 586 | – | – | – | – | – |
| CC1=CC(/C=C/c2ccc(Oc3cccc(Cl)c3)cc2)=[N+]2C1=C(c1ccc(NC(=O)CCl)cc1)c1cccn1[B-]2(F)F [BDNCA-290] | 0.14 | 557 | 20 | 65,629 | 577 | – | – | – | – | – |
| COc1cc(/C=C/C2=[N+]3C(=C(c4ccc(NC(=O)CCl)cc4)c4cccn4[B-]3(F)F)C(C)=C2)cc(Cl)c1OC [BDNCA-294] | 0.14 | 560 | 21 | 63,158 | 581 | – | – | – | – | – |
| COc1cccc(Oc2ccccc2/C=C/C2=[N+]3C(=C(c4ccc(NC(=O)CCl)cc4)c4cccn4[B-]3(F)F)C(C)=C2)c1 [BDNCA-298] | 0.14 | 558 | 23 | 67,277 | 581 | – | – | – | – | – |
| CC1=CC(/C=C/c2cccc(Oc3ccc(Cl)c(Cl)c3)c2)=[N+]2C1=C(c1ccc(NC(=O)CCl)cc1)c1cccn1[B-]2(F)F [BDNCA-299] | 0.09 | 556 | 19 | 49,703 | 575 | – | – | – | – | – |

| SMILES | Qunt. Yield (BDNCA library) | Abs (BDNCA library, absorption) [nm] | Flu-Abs [1] | ε [2] | Flu [3] | Abs [4] [nm] | Flu-Abs [5] | ε [6] | Flu [7] | Qunt. Yield (quantum yield, BDNCA library) |
| --- | --- | --- | --- | --- | --- | --- | --- | --- | --- | --- |
| CC1=CC(/C=C/c2ccc(Oc3ccc(C)cc3)cc2)=[N+]2C1=C(c1ccc(NC(=O)CCl)cc1)c1cccn1[B-]2(F)F [BDNCA-300] | 0.21 | 563 | 27 | 102,151 | 590 | – | – | – | – | – |
| COc1cc2ccccc2c(/C=C/C2=[N+]3C(=C(c4ccc(NC(=O)CCl)cc4)c4cccn4[B-]3(F)F)C(C)=C2)c1OC [BDNCA-301] | 0.24 | 567 | 36 | 85,950 | 603 | – | – | – | – | – |
| CC1=CC(/C=C/c2cccc(I)c2)=[N+]2C1=C(c1ccc(NC(=O)CCl)cc1)c1cccn1[B-]2(F)F [BDNCA-303] | 0.12 | 556 | 19 | 70,847 | 575 | – | – | – | – | – |
| Cc1cc(/C=C/c2ccc(Oc3ccc(C=O)cc3)cc2)n2c1C(c1ccc(NC(=O)CCl)cc1)=C1C=CC=[N+]1[B-]2(F)F [BDNCA-304] | 0.02 | 561 | 25 | 18,673 | 586 | – | – | – | – | – |
| COc1cc(F)c(/C=C/c2cc(C)c3n2[B-](F)(F)[N+]2=CC=CC2=C3c2ccc(NC(=O)CCl)cc2)cc1OC [BDNCA-305] | 0.22 | 568 | 38 | 153,227 | 606 | – | – | – | – | – |
| Cc1cc(/C=C/c2ccc(F)c(Oc3ccccc3)c2)n2c1C(c1ccc(NC(=O)CCl)cc1)=C1C=CC=[N+]1[B-]2(F)F [BDNCA-311] | – | – | – | – | – | 555 | 20 | 57,117 | 575 | 0.09 |
| COc1cccc(/C=C/C2=[N+]3C(=C(c4ccc(NC(=O)CCl)cc4)c4cccn4[B-]3(F)F)C(C)=C2)c1F [BDNCA-314] | – | – | – | – | – | 554 | 21 | 52,998 | 575 | 0.11 |
| CC1=CC(/C=C/c2cccc([N+](=O)[O-])c2O)=[N+]2C1=C(c1ccc(NC(=O)CCl)cc1)c1cccn1[B-]2(F)F [BDNCA-315] | – | – | – | – | – | 655 | – | 15,652 | weak | weak |
| CCOc1cccc(/C=C/C2=[N+]3C(=C(c4ccc(NC(=O)CCl)cc4)c4cccn4[B-]3(F)F)C(C)=C2)c1OCC [BDNCA-317] | – | – | – | – | – | 557 | 22 | 45,858 | 579 | 0.08 |
| Cc1cc(/C=C/c2cc(F)ccc2O)n2c1C(c1ccc(NC(=O)CCl)cc1)=C1C=CC=[N+]1[B-]2(F)F [BDNCA-318] | – | – | – | – | – | 564 | 25 | 18,398 | 589 | 0.02 |
| Cc1cc(/C=C/c2ccc(-c3ccccc3)o2)n2c1C(c1ccc(NC(=O)CCl)cc1)=C1C=CC=[N+]1[B-]2(F)F [BDNCA-319] | – | – | – | – | – | 598 | 58 | 54,096 | 656 | 0.05 |
| CCOc1c(/C=C/C2=[N+]3C(=C(c4ccc(NC(=O)CCl)cc4)c4cccn4[B-]3(F)F)C(C)=C2)cccc1OC [BDNCA-320] | – | – | – | – | – | 557 | 24 | 59,588 | 581 | 0.10 |
| CC1=CC(/C=C/c2ccc(Oc3ccc(F)cc3)cc2)=[N+]2C1=C(c1ccc(NC(=O)CCl)cc1)c1cccn1[B-]2(F)F [BDNCA-322] | – | – | – | – | – | 561 | 27 | 67,826 | 588 | 0.14 |
| Cc1cc(/C=C/c2ccc3c(c2)OC(F)(F)O3)n2c1C(c1ccc(NC(=O)CCl)cc1)=C1C=CC=[N+]1[B-]2(F)F [BDNCA-332] | – | – | – | – | – | 556 | 19 | 27,735 | 575 | 0.05 |
| CSc1ccccc1/C=C/C1=[N+]2C(=C(c3ccc(NC(=O)CCl)cc3)c3cccn3[B-]2(F)F)C(C)=C1 [BDNCA-333] | – | – | – | – | – | 560 | 26 | 63,707 | 586 | 0.12 |
| COc1ccc(/C=C/C2=[N+]3C(=C(c4ccc(NC(=O)CCl)cc4)c4cccn4[B-]3(F)F)C(C)=C2)cc1C [BDNCA-335] | – | – | – | – | – | 569 | 33 | 41,739 | 602 | 0.08 |
| CCOc1ccccc1/C=C/c1cc(C)c2n1[B-](F)(F)[N+]1=CC=CC1=C2c1ccc(NC(=O)CCl)cc1 [BDNCA-336] | – | – | – | – | – | 562 | 23 | 63,982 | 585 | 0.12 |
| CC1=CC(/C=C/c2c3ccccc3c(C)c3ccccc23)=[N+]2C1=C(c1ccc(NC(=O)CCl)cc1)c1cccn1[B-]2(F)F [BDNCA-340] | – | – | – | – | – | 532 | 17 | 36,247 | 549 | 0.04 |
